PMC12431657, “Discovery and mechanistic insights of dibenzoylmethane as a broad spectrum inhibitor of coronavirus” (PLOS Pathogens, 2025)
Structures can show the parent of a compound that is named as a salt.

How the values were obtained:
[1] = tested on: HCoV-229E; parameters: species or system Huh-7; HTS, protection from HCoV-229E induced cell death, luminescent cell viability (CellCounting-Lite 2.0), inhibition rate; details: 24 h, 10 µM; inhibitor
[2] = tested on: HCoV-OC43; parameters: species or system RD; HTS, protection from HCoV-OC43 induced cell death, luminescent cell viability (CellCounting-Lite 2.0), inhibition rate; details: 24 h, 10 µM; inhibitor

SMILES | 229E Inhibition rate [1] | OC43 Inhibition rate [2]
O=C1C=C2C=C[C@@H]3C[C@@]2(O1)[C@H]1CCCCN31 [(-)-Securinine] | 43% | 38.4%
CC[C@@]1(O)C(=O)OCc2c1cc1n(c2=O)Cc2cc3cc(O)ccc3nc2-1 [(S)-10-Hydroxycamptothecin] | 18.7 | -0.8
O=C1C=C2C=C[C@@H]3C[C@@]2(O1)[C@@H]1CCCCN31 [Allosecurinine] | 21.3% | 19.8%
N#C[C@H](O[C@@H]1O[C@H](CO[C@@H]2O[C@H](CO)[C@@H](O)[C@H](O)[C@H]2O)[C@@H](O)[C@H](O)[C@H]1O)c1ccccc1 [Amygdalin] | 20.7% | 0.1%
CC[C@@H]1/C=C(\C)C[C@H](C)C[C@H](OC)[C@H]2O[C@@](O)(C(=O)C(=O)N3CCCC[C@H]3C(=O)O[C@H](/C(C)=C/[C@@H]3CC[C@@H](O)[C@H](OC)C3)[C@H](C)[C@@H](O)CC1=O)[C@H](C)C[C@@H]2OC [Ascomycin] | 17.9 | 12.5
CC(C)[C@H]1OC(=O)[C@H](Cc2ccccc2)N(C)C(=O)[C@@H](C(C)C)OC(=O)[C@H](Cc2ccccc2)N(C)C(=O)[C@@H](C(C)C)OC(=O)[C@H](Cc2ccccc2)N(C)C1=O [Beauvericin] | 24.3 | -1.9
C/C=C\c1cc(OC)c(OC)cc1OC [Beta-asarone] | 28.9% | 0.1%
CN1CCc2cc3c(cc2[C@H]1[C@@H]1OC(=O)c2c1ccc1c2OCO1)OCO3 [Bicuculline] | 0% | -0.3%
C[C@]12CC[C@H](O)C[C@H]1CC[C@@H]1[C@@H]2CC[C@]2(C)[C@@H](c3ccc(=O)oc3)CC[C@]12O [Bufalin] | 19.3% | -7.6%
CC[C@H]1CN2CCc3cc(OC)c(OC)cc3[C@@H]2C[C@@H]1C[C@H]1NCCc2cc(O)c(OC)cc21 [Cephaeline (dihydrochloride)] | 17.7% | 7.6%
CC(=O)O[C@H]1[C@H]2O[C@]23[C@@H]2CC[C@]4(O)C[C@@H](O)CC[C@]4(C)[C@H]2CC[C@]3(C)[C@H]1c1ccc(=O)oc1 [Cinobufotalin] | 9.3% | 11.4%
CC1=C2C(=CO[C@H](C)[C@H]2C)C(O)=C(C(=O)O)C1=O [Citrinin] | 12% | -8.1%
COc1cc2c(c(OC)c1OC)-c1ccc(OC)c(=O)cc1[C@@H](NC(C)=O)CC2 [Colchicine] | 13.9 | -3.5
CC(=O)C1=C(O)[C@@H]2[C@H]3c4c[nH]c5cccc(c45)C[C@H]3C(C)(C)N2C1=O [Cyclopiazonic acid] | 0% | 0%
CO[C@H]1CC=C2CCN3CCC4=C(CC(=O)OC4)[C@]23C1 [Dihydro-β-erythroidine (hydrobromide)] | 0% | -0.7%
COc1cc(CNC(=O)CCCCCCC(C)C)ccc1O [Dihydrocapsaicin] | 7.8 | 7.9
C=C(C)c1cc2cc(C(C)=O)c(O)cc2o1 [Euparin] | 14.2% | 4.4%
C=C[C@@H](O)C#CC#C[C@@H](O)/C=C\CCCCCCC [Falcarindiol] | 34% | -0.3%
CCc1c(Cl)c(O)c(Cl)c(O)c1C(=O)O[C@H]1[C@H](O)[C@H](OC)[C@H](OC/C2=C\C=C\C[C@H](O)/C(C)=C/[C@H](CC)[C@@H](O[C@@H]3OC(C)(C)[C@@H](OC(=O)C(C)C)[C@H](O)[C@@H]3O)/C(C)=C/C(C)=C/C[C@@H]([C@@H](C)O)OC2=O)O[C@@H]1C [Fidaxomicin] | 27.3 | 15
CCCCc1ccc(C(=O)O)nc1 [Fusaric acid] | 12.7% | 0.1%
CN[C@H]1[C@H](O)[C@H](O[C@@H]2[C@@H](O)[C@H](O[C@H]3O[C@H](C(C)O)[C@@H](O)[C@H](O)[C@H]3N)[C@@H](N)C[C@H]2N)OC[C@@]1(C)O (stereo partly drawn) [G-418 (disulfate)] | 29.4% | 4.1%

SMILES | 229E Inhibition rate [1] | OC43 Inhibition rate [2]
C=C[C@]12CN(C)[C@@H]3[C@H]4CO[C@H](C[C@H]41)[C@]1(C(=O)Nc4ccccc41)[C@@H]32 [Gelsemine] | 21.7% | -0.3%
CN1C(=O)[C@]23CC4=CC=C[C@H](O)[C@H]4N2C(=O)[C@@]1(CO)SS3 [Gliotoxin] | 0.7% | -0.7%
Cc1nccc2c1[nH]c1ccccc12 [Harmane] | 0% | 0.2%
COc1ccc2c(c1OC)C(=O)O[C@@H]2[C@H]1c2cc3c(cc2CCN1C)OCO3 [Hydrastine] | 28.1% | -0.2%
COc1c2c3c4c(c(OC)c(=O)c5c(O)cc(OC)c(c6c(OC)cc(O)c(c1=O)c63)c54)[C@@H](C(C)=O)[C@@](C)(O)C2 [Hypocrellin A] | 4.6% | -1.7%
N[C@H](C(=O)O)c1cc(O)no1 [Ibotenic acid] | 11.4% | 3.8%
CC1=C2C(=O)[C@H]3[C@@H](CC=C4C[C@@H](O)CC[C@@]43C)[C@@H]2CC[C@]12O[C@@H]1C[C@H](C)CN[C@H]1[C@H]2C [Jervine] | 3.8% | -0.3%
C=C(C)[C@H]1CN[C@H](C(=O)O)[C@H]1CC(=O)O [Kainic acid] | 14.3% | 2.1%
CCC(=O)O[C@@H]1CC(=O)O[C@H](C)C/C=C/C=C/[C@H](O)[C@H](C)C[C@H](CC=O)[C@H](O[C@@H]2O[C@H](C)[C@@H](O[C@H]3C[C@@](C)(O)[C@@H](OC(=O)CC)[C@H](C)O3)[C@H](N(C)C)[C@H]2O)[C@H]1OC [Midecamycin] | 12.9 | -1.1
N#C[C@@H](O[C@@H]1O[C@H](CO[C@@H]2O[C@H](CO)[C@@H](O)[C@H](O)[C@H]2O)[C@@H](O)[C@H](O)[C@H]1O)c1ccccc1 [Neoamygdalin] | 63.2% | -0.4%
O=C1C=C2C(=CCOC2O)O1 (stereo not drawn) [Patulin] | 3.7% | -3.1%
C[C@H]1CCC2N(C1)C[C@H]1C3CC4[C@@H](CC(=O)C5C[C@@H](O)CC[C@@]54C)C3CCC1[C@]2(C)O (stereo partly drawn) [Peiminine] | 21.8% | 1%
CC(C)CCC(=O)c1ccoc1 [Perilla ketone] | 9.1% | 2.5%
CC(C)C1=CC(=O)[C@@](C)([C@H]2[C@H](O)C[C@@]3(C)[C@@H]4CC=C5[C@@H](CC[C@@H](O[C@@H]6OC[C@@H](O)[C@H](O)[C@H]6O[C@@H]6O[C@@H](C)[C@H](O)[C@@H](O)[C@H]6O)C5(C)C)[C@]4(C)C(=O)C[C@]23C)O1 [Picfeltarraenin IA] | 0% | -0.3%
C[C@@H]1O[C@@H](O[C@@H]2C=C3CC[C@@H]4[C@H](CC[C@]5(C)[C@@H](c6ccc(=O)oc6)CC[C@]45O)[C@@]3(C)CC2)[C@H](O)[C@H](O)[C@H]1O [Proscillaridin A] | 21.1% | -0.6%
CC1=C2[C@H]3OC(=O)[C@@H](C)[C@@H]3CC[C@@]2(C)C=CC1=O [Santonin] | 22.7% | -0.5%
C[C@H]1CC[C@@H]2N(C1)C[C@H]1[C@@H]3C[C@H]4[C@@H](CC(=O)[C@H]5C[C@@H](O)CC[C@@]54C)[C@@H]3CC[C@H]1[C@]2(C)O [Sipeimine] | 43.3% | -1%
O=c1cc(-c2ccc(O)cc2)oc2c([C@@H]3O[C@H](CO)[C@@H](O)[C@H](O)[C@H]3O)c(O)cc(O)c12 [Vitexin] | 10.4% | 0%
C[C@H]1CC[C@@H]2N(C1)C[C@H]1[C@@H]3C[C@H]4[C@@H](CC(=O)[C@H]5C[C@H](O)CC[C@@]54C)[C@@H]3CC[C@H]1[C@]2(C)O [Yubeinine] | 8.8% | 0%
C/C=C/c1cc(OC)c(OC)cc1OC [alpha-Asarone] | 14.4% | 1.2%
C[C@H]1CC[C@@H]2[C@@H](C)[C@H]3[C@H](C[C@H]4[C@@H]5CC=C6C[C@@H](O[C@@H]7O[C@H](CO)[C@H](O)[C@H](O[C@@H]8O[C@H](CO)[C@@H](O)[C@H](O)[C@H]8O)[C@H]7O[C@@H]7O[C@@H](C)[C@H](O)[C@@H](O)[C@H]7O)CC[C@]6(C)[C@H]5CC[C@]34C)N2C1 [α-Solanine] | 9.3% | 23.1%
